Measurements: US11696895B2, “Fine particle coating (drug-containing hollow particle and method for manufacturing same)” (Sumitomo Pharma Co., Ltd., priority 2017, dated 2023)

What was measured:
[1] = Particle size distribution (laser diffraction, volume based); type: physicochemical; conditions: Table 2-2 particle sizes
Method: As used herein, “mean particle size” refers to cumulative 50% point of particle size D50 in volume based measurement of powder particles. Such a mean particle size is measured based on volume with a laser diffraction particle size distribution analyzer (e.g., Powrex Corp: […] VIEWER, Shimadzu Corp: SALD-3000J, or […]: HELOS & RODOS).
The particle size distribution of components of interest, macromolecules, other additives, mixed powder of components of interest and other additives, resulting coated component of interest-containing hollow particles, and coatable microparticles was measured based on volume with a laser diffraction particle size distribution analyzer (e.g., Powrex Corp: […] VIEWER or […]: HELOS & RODOS).

[2] = Dissolution test (paddle method, revised 16th Japanese Pharmacopoeia), HPLC; type: physicochemical; conditions: 50% dissolution time after coating / before coating (uncoated nucleus)
Method: Dissolution tests were conducted using the tablets manufactured in Comparative Example 2 and Example 2. Water of 37° C./900 ML was used as the test solution for measurement at a number of rotations of 50 RPM based on the paddle method of a dissolution test method in the revised 16th Japanese Pharmacopoeia. The measurement times were 10, 15, 30, 45, 60, 90, 120, 360, 720, 1080, and 1440. The sampling solution was filtered and measured by HPLC to calculate the dissolution rate.
<HPLC Measurement Conditions> • Detector: ultraviolet visible spectrophotometer • Measurement wavelength: 285 NM • Column: WATERS ACQUITY UPLC C18 [2.1 MM Φ×30 MM] • Colum temperature: 40° C. • Amount of flow: 0.5 ML/MIN • Amount injected: […] • Sample cooler: 25° C. • Syringe cleansing solution: water/acetonitrile mixture=1/1 • Mobile phase: water/acetonitrile mixture=4/1
A dissolution test was conducted using the particles manufactured in Example 4 and particles manufactured in Comparative Example 1. The test conditions were the same as Test Example 1.
A dissolution test was conducted using the coated component of interest-containing hollow particles manufactured in Example 5. The test conditions were the same as Test Example 1. […] The dissolution time was extended by a factor of 2 or greater. Improvement in the ability to control release of macromolecules constituting nuclear particles was confirmed for all coated component of interest-containing hollow particles using water insoluble particles as coatable microparticles.
A dissolution test was conducted using the particles manufactured in Example 7-2 and tablets manufactured in Example 8-1 and Comparative Examples 8-1 and 8-2. The test conditions were the same as in Test Example 1.
A dissolution test was conducted using the particles manufactured in Example 11 and Comparative Example 11. The test conditions were the same as Test Example 1.
A dissolution test was conducted using the particles manufactured in Comparative Example 12B. The test conditions were the same as Test Example 1.

Compound	D10 [1]	D50 [1]	D90 [1]	Ratio of 50% dissolution time with respect to nucleus (JP 1st) [2]
NS(=O)(=O)Cc1noc2ccccc12 [Compound A, 1,2-BENZISOXAZOLE-3-METHANESULFONAMIDE]	0.73 µm	1.99 µm	5.16 µm	
COc1cc(N)c(Cl)cc1C(=O)NC[C@H]1CN(CC2CCN(C(=O)CO)CC2)CCO1 [Compound D]				≥ 63
CC(=O)Nc1ccc(O)cc1 [Compound E, N-(4-HYDROXYPHENYL)ACETAMIDE]				≥ 21
Cn1c(=O)c2c(ncn2C)n(C)c1=O [Compound F, 1,3,7-TRIMETHYLPURINE-2,6-DIONE]				≥ 235
